# Data taken from ChEMBL document CHEMBL4184210, “Optimization of novel monobactams with activity against carbapenem-resistant Enterobacteriaceae - Identification of LYS228” (Bioorg Med Chem Lett, 2018).
# Key:
# Escherichia coli [1] = experiment: microbe, parasite or virus in culture
# Escherichia coli [2] = experiment: microbe, parasite or virus in culture; remark: listed apart in the source
# Escherichia coli [3] = experiment: microbe, parasite or virus in culture; remark: listed apart in the source
# Escherichia coli [4] = experiment: microbe, parasite or virus in culture; remark: listed apart in the source
# Escherichia coli [5] = experiment: microbe, parasite or virus in culture; remark: listed apart in the source
# Escherichia coli [6] = experiment: Antimicrobial activity against Escherichia coli expressing beta-lactamase VEB-1 by CLSI broth microdilution method; format: functional
# Escherichia coli [7] = experiment: microbe, parasite or virus in culture; remark: listed apart in the source
# Escherichia coli [8] = experiment: microbe, parasite or virus in culture; remark: listed apart in the source
# Escherichia coli [9] = experiment: Antimicrobial activity against Escherichia coli expressing beta-lactamase TEM-1 by CLSI broth microdilution method; format: functional
# Escherichia coli [10] = experiment: microbe, parasite or virus in culture; remark: listed apart in the source
# Escherichia coli [11] = experiment: microbe, parasite or virus in culture; remark: listed apart in the source
# Escherichia coli [12] = experiment: microbe, parasite or virus in culture; remark: listed apart in the source
# Escherichia coli [13] = experiment: microbe, parasite or virus in culture; remark: listed apart in the source
# Escherichia coli [14] = experiment: microbe, parasite or virus in culture; remark: listed apart in the source
# Escherichia coli [15] = experiment: microbe, parasite or virus in culture; remark: listed apart in the source
# Escherichia coli [16] = experiment: microbe, parasite or virus in culture; remark: listed apart in the source
# Escherichia coli [17] = experiment: microbe, parasite or virus in culture; remark: listed apart in the source
# Escherichia coli [18] = experiment: Antimicrobial activity against Escherichia coli expressing beta-lactamase NDM-1 by CLSI broth microdilution method; format: functional
# Escherichia coli [19] = experiment: microbe, parasite or virus in culture; remark: listed apart in the source
# Escherichia coli [20] = experiment: microbe, parasite or virus in culture; remark: listed apart in the source
# Escherichia coli [21] = experiment: microbe, parasite or virus in culture; remark: listed apart in the source
# Escherichia coli [22] = experiment: microbe, parasite or virus in culture; remark: listed apart in the source
# Escherichia coli [23] = experiment: microbe, parasite or virus in culture; remark: listed apart in the source
# Escherichia coli [24] = experiment: microbe, parasite or virus in culture; remark: listed apart in the source
# Escherichia coli [25] = experiment: microbe, parasite or virus in culture; remark: listed apart in the source
# Escherichia coli [26] = experiment: microbe, parasite or virus in culture; remark: listed apart in the source
# Escherichia coli [27] = experiment: microbe, parasite or virus in culture; remark: listed apart in the source
# Escherichia coli [28] = experiment: microbe, parasite or virus in culture; remark: listed apart in the source
# Escherichia coli [29] = experiment: microbe, parasite or virus in culture; remark: listed apart in the source
# Escherichia coli [30] = experiment: microbe, parasite or virus in culture; remark: listed apart in the source
# Escherichia coli [31] = experiment: microbe, parasite or virus in culture; remark: listed apart in the source
# Escherichia coli [32] = experiment: Antimicrobial activity against Escherichia coli expressing beta-lactamase NDM-5 by CLSI broth microdilution method; format: functional
# Escherichia coli [33] = experiment: microbe, parasite or virus in culture; remark: listed apart in the source
# Escherichia coli [34] = experiment: microbe, parasite or virus in culture; remark: listed apart in the source
# Escherichia coli [35] = experiment: microbe, parasite or virus in culture; remark: listed apart in the source
# Escherichia coli [36] = experiment: microbe, parasite or virus in culture; remark: listed apart in the source
# Escherichia coli [37] = experiment: microbe, parasite or virus in culture; remark: listed apart in the source
# Escherichia coli [38] = experiment: microbe, parasite or virus in culture; remark: listed apart in the source
# Escherichia coli [39] = experiment: microbe, parasite or virus in culture; remark: listed apart in the source
# Escherichia coli [40] = experiment: microbe, parasite or virus in culture; remark: listed apart in the source
# Escherichia coli [41] = experiment: microbe, parasite or virus in culture; remark: listed apart in the source
# Escherichia coli [42] = experiment: Antimicrobial activity against Escherichia coli expressing beta-lactamase KPC-2 by CLSI broth microdilution method; format: functional
# Escherichia coli [43] = experiment: microbe, parasite or virus in culture; remark: listed apart in the source
# Escherichia coli [44] = experiment: microbe, parasite or virus in culture; remark: listed apart in the source
# Escherichia coli [45] = experiment: microbe, parasite or virus in culture; remark: listed apart in the source
# [46] = Chemical stability in pH 7.4 potassium phosphate buffer assessed as half life for compound hydrolysis at 37 degC by UPLC and mass spectrometry; format: physicochemical
# Pseudomonas aeruginosa [47] = experiment: Antimicrobial activity against Pseudomonas aeruginosa ATCC 27853 by CLSI broth microdilution method; format: functional
# Pseudomonas aeruginosa [48] = experiment: Antimicrobial activity against Pseudomonas aeruginosa expressing delta-mexB/mexXY/delta-ampDh2/ delta-ampD by CLSI broth microdilution method; format: functional
# Pseudomonas aeruginosa [49] = experiment: Antimicrobial activity against Pseudomonas aeruginosa expressing delta-mexB/delta-mexXY/delta-mexCD and delta-ampC mutant by CLSI broth microdilution method; format: functional
# Pseudomonas aeruginosa [50] = experiment: Antimicrobial activity against Pseudomonas aeruginosa expressing nalB/delta-mexXY/delta-mexCDoprJ/delta-ampC by CLSI broth microdilution method; format: functional
compound,measurement,setting,value
CCN1CCN(C(=O)N[C@@H](C(=O)N[C@@H]2C(=O)N3[C@@H]2SC(C)(C)[C@@H]3C(=O)O)c2ccccc2)C(=O)C1=O [PIPERACILLIN],MIC,Escherichia coli [1],> 64 mg/L
same,MIC,Escherichia coli [2],8 mg/L
same,MIC,Escherichia coli [3],> 64 mg/L
same,MIC,Escherichia coli [4],32 mg/L
same,MIC,Escherichia coli [5],16 mg/L
same,MIC,Escherichia coli [6],32 mg/L
same,MIC,Escherichia coli [7],> 64 mg/L
same,MIC,Escherichia coli [8],> 64 mg/L
same,MIC,Escherichia coli [9],> 64 mg/L
same,MIC,Escherichia coli [10],16 mg/L
same,MIC,Escherichia coli [11],> 64 mg/L
same,MIC,Escherichia coli [12],> 64 mg/L
same,MIC,Escherichia coli [13],64 mg/L
same,MIC,Escherichia coli [14],64 mg/L
same,MIC,Escherichia coli [15],64 mg/L
same,MIC,Escherichia coli [16],> 64 mg/L
same,MIC,Escherichia coli [17],> 64 mg/L
same,MIC,Escherichia coli [18],> 64 mg/L
same,MIC,Escherichia coli [19],> 64 mg/L
same,MIC,Escherichia coli [20],64 mg/L
same,MIC,Escherichia coli [21],32 mg/L
same,MIC,Escherichia coli [22],> 64 mg/L
same,MIC,Escherichia coli [23],> 64 mg/L
same,MIC,Escherichia coli [24],4 mg/L
same,MIC,Escherichia coli [25],> 64 mg/L
same,MIC,Escherichia coli [26],> 64 mg/L
same,MIC,Escherichia coli [27],64 mg/L
same,MIC,Escherichia coli [28],> 64 mg/L
same,MIC,Escherichia coli [29],32 mg/L
same,MIC,Escherichia coli [30],> 64 mg/L
same,MIC,Escherichia coli [31],> 64 mg/L
same,MIC,Escherichia coli [32],> 64 mg/L
same,MIC,Escherichia coli [33],> 64 mg/L
same,MIC,Escherichia coli [34],64 mg/L
same,MIC,Escherichia coli [35],32 mg/L
same,MIC,Escherichia coli [36],> 64 mg/L
same,MIC,Escherichia coli [37],8 mg/L
same,MIC,Escherichia coli [38],64 mg/L
same,MIC,Escherichia coli [39],8 mg/L
same,MIC,Escherichia coli [40],> 64 mg/L
same,MIC,Escherichia coli [41],8 mg/L
same,MIC,Escherichia coli [42],> 64 mg/L
same,MIC,Escherichia coli [43],> 64 mg/L
same,MIC,Escherichia coli [44],64 mg/L
same,MIC,Escherichia coli [45],> 64 mg/L
CO/N=C(\C(=O)N[C@@H]1C(=O)N2C(C(=O)[O-])=C(C[N+]3(C)CCCC3)CS[C@H]12)c1csc(N)n1,MIC,Escherichia coli [1],0.125 mg/L
same,MIC,Escherichia coli [3],16 mg/L
same,MIC,Escherichia coli [4],4 mg/L
same,MIC,Escherichia coli [5],0.25 mg/L
same,MIC,Escherichia coli [14],1 mg/L
same,MIC,Escherichia coli [15],4 mg/L
same,MIC,Escherichia coli [16],16 mg/L
same,MIC,Escherichia coli [17],1 mg/L
same,MIC,Escherichia coli [20],0.25 mg/L
same,MIC,Escherichia coli [21],0.125 mg/L
same,MIC,Escherichia coli [22],1 mg/L
same,MIC,Escherichia coli [24],≤ 0.03 mg/L
same,MIC,Escherichia coli [25],0.125 mg/L
same,MIC,Escherichia coli [26],0.125 mg/L
same,MIC,Escherichia coli [27],0.25 mg/L
same,MIC,Escherichia coli [33],0.125 mg/L
same,MIC,Escherichia coli [35],0.125 mg/L
same,MIC,Escherichia coli [40],1 mg/L
same,MIC,Escherichia coli [41],1 mg/L
same,MIC,Escherichia coli [43],0.25 mg/L
same,MIC,Escherichia coli [45],4 mg/L
CC(C)(O/N=C(/C(=O)N[C@@H]1C(=O)N(S(=O)(=O)O)[C@@H]1CF)c1csc(N)n1)C(=O)O (stereo in doubt),MIC,Escherichia coli [1],0.06 mg/L
same,MIC,Escherichia coli [3],0.25 mg/L
same,MIC,Escherichia coli [7],4 mg/L
same,MIC,Escherichia coli [12],32 mg/L
same,half-life,[46],41.2 days
same,MIC,Escherichia coli [18],0.125 mg/L
same,MIC,Escherichia coli [24],0.125 mg/L
same,MIC,Escherichia coli [42],1 mg/L
CC(C)(O/N=C(\C(=O)N[C@@H]1C(=O)N(S(=O)(=O)O)[C@@H]1Cn1cncn1)c1nsc(N)n1)C(=O)O,MIC,Pseudomonas aeruginosa [47],32 mg/L
same,MIC,Escherichia coli [3],1 mg/L
same,MIC,Escherichia coli [7],32 mg/L
same,MIC,Pseudomonas aeruginosa [48],> 64 mg/L
same,MIC,Escherichia coli [12],8 mg/L
same,MIC,Escherichia coli [17],8 mg/L
same,MIC,Escherichia coli [24],1 mg/L
same,MIC,Pseudomonas aeruginosa [49],1 mg/L
same,MIC,Pseudomonas aeruginosa [50],> 64 mg/L
same,MIC,Escherichia coli [35],16 mg/L
same,MIC,Escherichia coli [42],2 mg/L
CC(C)(O/N=C(/C(=O)N[C@@H]1C(=O)N(OS(=O)(=O)O)C1(C)C)c1csc(N)n1)C(=O)O (stereo in doubt),MIC,Escherichia coli [1],0.25 mg/L
same,MIC,Escherichia coli [3],1 mg/L
same,MIC,Escherichia coli [7],0.5 mg/L
same,MIC,Escherichia coli [12],> 32 mg/L
same,half-life,[46],4.17 days
same,MIC,Escherichia coli [18],0.25 mg/L
same,MIC,Escherichia coli [24],0.25 mg/L
same,MIC,Escherichia coli [42],0.25 mg/L
CC(C)(O/N=C(\C(=O)N[C@@H]1C(=O)N(S(=O)(=O)O)[C@@H]1Cn1ccnn1)c1csc(N)n1)C(=O)O (stereo in doubt),MIC,Escherichia coli [3],1 mg/L
same,MIC,Escherichia coli [7],2 to 4 mg/L
same,MIC,Escherichia coli [12],4 mg/L
same,half-life,[46],10.7 days
same,MIC,Escherichia coli [17],2 mg/L
same,MIC,Escherichia coli [18],0.5 mg/L
same,MIC,Escherichia coli [24],0.5 mg/L
same,MIC,Escherichia coli [35],8 mg/L
same,MIC,Escherichia coli [42],2 mg/L
